Results as given in patent US20250263457A1, “Pharmaceutical Composition for Preventing and Treating Liver Disease Comprising Novel Peptide” (Pusan National University Industry-University Cooperation …, priority 2024, published 2025).

Test system: human pHSCs
Experiment: Cell survival of human pHSCs by MTS assay
Type: cell-based
Conditions: 0, 20, 40, or 100 ng/ml; 24 and 48 hours; vs PBS control (FIG. 2B)
Experimental: 100 μl of human pHSCs (5×10^4 cells/ml) were seeded into 96 wells and cultured overnight. The cells were treated with peptide YJ at a concentration of 0, 20, 40, or 100 ng/ml and then further cultured. After 24 and 48 hours, cell survival for each cell was confirmed through MTS assay (Cell titer proliferation assay, G3580, Promega) (FIG. 2A). At this time, human pHSCs treated with PBS were used as a control group (vehicle).

peptide YJ: TSG-6 fragment: core domain RSGKYKLTYAEAKA plus C-terminal extension VCEFEGGHLATYKQLEAARKIGFHVCAAGWMAK (SEQ ID NO: 9); TSG-6 mimetic (RSGKYKLTYAEAKAVCEFEGGHLATYKQLEAARKIGFHVCAAGWMAK; peptide 4)
cell survival and proliferation: no changes in cell survival and proliferation were observed
